Results as given in patent publication EP0179386A2, “1,4-Dihydropyridine hydroxyamines, process for their preparation and their use as pharmaceutical agents” (BAYER AG, priority 1984, dated 1986).

Assays:
[1] = system: normotonen Ratten; assay: Blood pressure before and after i.v. application in anaesthetised normotensive rats; assay type: in vivo; details: Rattus norvegicus, iv, 1 mg/kg i.v., read-out: BD: Blutdrucksenkung in % bei normotonen Ratten
Protocol: Die erfindungsgemäßen neuen Verbindungen werden Ratten mit einer Dosis von 1 mg/kg intravenös appliziert und der Blutdruck vor und nach der Applikation bestimmt.

[2] = system: Isoprenalin stimulierten Ratten; assay: Lowering of heart rate in rats stimulated with subcutaneous isoprenaline; assay type: in vivo; details: anaesthetised rats, 1 mg/kg i.v., heart rate stimulated by subcutaneous isoprenaline
Protocol: In einem zweiten Test wird die Herzfrequenz von Ratten durch subkutane Applikation von Isoprenalin stimuliert. Dann werden die erfindungsgemäßen Verbindungen appliziert (1 mg/kg i.v.) und 'der Effekt auf die Erniedrigung der Herzfrequenz gemessen.

Compound | inhibition in vivo at 1 mg/kg [1] [%] | HR: Erniedrigung der Herzfrequenz in absoluten Zahlen bei Isoprenalin stimulierten Ratten (subkutane Applikation) [2]
CC1=C(C(=O)OCCNCC(O)COc2cccc3ccccc23)C(c2cccc([N+](=O)[O-])c2)C(C(=O)OC(C)C)=C(C)N1 (centres unmarked) [Beispiel 1] | 20 to 30 | ↓↓ (40 < 65)
COC(=O)C1=C(C)NC(C)=C(C(=O)OCCCCCNCC(O)COc2cccc3ccccc23)C1c1cccc([N+](=O)[O-])c1 (centres unmarked) [Beispiel 16] | 10 to 20 | ↓ (15 - < 40)
COC(=O)C1=C(C)NC(C)=C(C(=O)OCCOCCNCC(O)COc2cccc3ccccc23)C1c1cccc([N+](=O)[O-])c1 (centres unmarked) [Beispiel 20] | 10 to 20 | ↓↓ (40 < 65)
COC(=O)C1=C(C)NC(C)=C(C(=O)OCCNCC(O)COc2ccc(CC(N)=O)cc2)C1c1cccc([N+](=O)[O-])c1 (centres unmarked) [Beispiel 25] | 5 to 10 | ↓ (15 - < 40)
CC1=C(C(=O)OCCCNCC(O)COc2cccc3[nH]ccc23)C(c2cccc([N+](=O)[O-])c2)C(C(=O)OC(C)C)=C(C)N1 (centres unmarked) [Beispiel 26] | 10 to 20 | ↓↓↓ (65 < 100)
CC1=C(C(=O)OCCOCCNCC(O)COc2cccc3ccccc23)C(c2cccc([N+](=O)[O-])c2)C(C(=O)OC(C)C)=C(C)N1 (centres unmarked) [Beispiel 30] | 30 to 40 | (↓) (10)
CC1=C(C(=O)OCCSCCNCC(O)COc2cccc3ccccc23)C(c2cccc([N+](=O)[O-])c2)C(C(=O)OC(C)C)=C(C)N1 (centres unmarked) [Beispiel 31] | 20 to 30 | ↓↓ (40 < 65)
COC(=O)C1=C(C)NC(C)=C(C(=O)OCCN(C)CCCNCC(O)COc2cccc3ccccc23)C1c1cccc([N+](=O)[O-])c1 (centres unmarked) [Beispiel 32] | 10 to 20 | ↓ (15 - < 40)
COC(=O)C1=C(C)NC(C)=C(C(=O)OCCNCC(O)COc2cccc3ccccc23)C1c1cccc(Cl)c1 (centres unmarked) [Beispiel 68] | 20 to 30 | ↓ (15 - < 40)
COC(=O)C1=C(C)NC(C)=C(C(=O)OCCNCC(O)COc2cccc3ccccc23)C1c1ccccc1[N+](=O)[O-] (centres unmarked) [Beispiel 69] | 10 to 20 | ↓ (15 - < 40)
